Laboratory results published in article PMC8062851, “2-Methoxyestradiol and its derivatives inhibit store-operated Ca^2+ entry in T cells: Identification of a new and potent inhibitor” (Biochimica et Biophysica Acta. Molecular Cell Research, 2021).
“Also recorded” adds a separate entry of the source.

Assays:
[1] = tested on: SOCE in H1299 cells; assay: SOCE inhibition, Ca2+ free/Ca2+ re-addition protocol in H1299 cells; type: cell-based, human; conditions: 10 μM
Description: Jurkat T-lymphocytes were cultured in RPMI 1640 medium containing 25 mM HEPES and GlutaMAX-1 (Gibco, Life Technologies), supplemented with 7.5% (v/v) newborn calf serum (NCS) (Biochrom, Merck Millipore), 100 U/ml penicillin and streptomycin (standard JMP medium). Cell density was kept between 0.3 and 1.2 ∗ 10^6 cells/ml. H1299 cells were cultured in DMEM (Dulbecco's modified Eagle's medium; Gibco, Life Technologies) supplemented with 10% (v/v) (FCS) (Biochrom, Merck Millipore), 4 mM L-glutamine, 100 μg/ml streptomycin, and 100 units/ml penicillin.
Jurkat T-lymphocytes, primary human CD4^+ T cells and H1299 cells were pelleted at 450 ×g for 5 min, rat TMBP at 300 ×g for 8 min at room temperature and were resuspended in 1 ml of either standard JMP medium (Jurkat, H1299 and human CD4^+ T cells) or standard DMEM based medium containing 10% fetal bovine serum (FBS) (v/v) (TMBP cells). […]
10^6 Jurkat T-lymphocytes, H1299 cells, TMBP cells or 4*10^6 primary human CD4^+ T cells were added into a 10 × 10 mm quartz glass cuvette (Hellma Analytics, Germany) that was placed into a fluorescence spectrophotometer (F-2710, Hitachi, Japan). […] Fluorescence intensity was measured at an emission wavelength of 495 ± 5 nm for both excitation wavelengths.

[2] = tested on: IP3 receptors; assay: IP3-evoked Ca2+ release in permeabilized Jurkat T cells; type: cell-based, human; conditions: 2 μM IP3
Description: 3 ∗ 10^7 Jurkat T-lymphocytes per measurement were centrifuged at 450 ×g for 5 min at room temperature. The pellet was rinsed twice, each time using 10 ml permeabilization buffer 1 (120 mM KCl, 10 mM NaCl, 1.2 mM MgCl2, 0.533 mM CaCl2, 1 mM EGTA and 10 mM HEPES, pH 7.2 (KOH), sterile filtered). Subsequently, the pellet was resuspended in 2 ml permeabilization buffer 1 containing 80 μg/ml saponin (Fluka) and the cells were incubated for 10 min at 37 °C. Subsequently, the cells were centrifuged at 450 ×g for 5 min at room temperature and the cell pellet was washed once in 10 ml permeabilization buffer 2 (120 mM KCl, 10 mM NaCl, 1.2 mM MgCl2 and 10 mM HEPES, pH 7.2 (KOH), sterile filtered). Finally, the cells were taken up in 1 ml permeabilization buffer 2, placed into a cuvette and measured at the fluorescence spectrophotometer. Before the start of the measurement, 0.5 μl of 1 mM Fura2 free acid (dissolved in pure water, final concentration: 0.5 μM), 5 μl of 5 mg/ml creatinkinase (dissolved in permeabilization buffer 2, final concentration: 25 μg/ml, 20 U/ml, Roche) and 10 μl of 2 M creatin phosphate (dissolved in permeabilization buffer 2, final concentration: 20 mM, Calbiochem) were added. Fura2 was used to measure the Ca^2+ concentration and creatinkinase and creatin phosphate were used as ATP-regenerating system. The measurement was controlled by FL Solutions (Version 4.1, Hitachi High-Technologies Corporation). Fura2 was alternatively excited every 2 s at 340 ± 5 nm and 380 ± 5 nm, each 400 ms apart. Fluorescence intensity was measured at an emission wavelength of 495 ± 5 nm for both excitation wavelengths. […] Ca^2+ concentrations were calculated according to Grynkiewicz et al. as described earlier in Section 2.4.
As a quantitative read-out for inhibition of IP3 receptors, the peak [Ca^2+] after IP3 addition was subtracted from the mean [Ca^2+] between 25 and 75 s before IP3 addition (dPeak). […] The rate constant K of the fitted data was used as a quantitative read-out for SERCA pump activity and its inhibition.

[3] = target: T1, KV channels (Homo sapiens, UniProt P22001); assay: Whole-cell patch clamp of KV channels in Jurkat T cells; type: cell-based; conditions: STX564 at 10 μM
T1 construct: About 10^5 Jurkat T-lymphocytes were placed into this recording chamber; endogenous in cells; host or cells: Jurkat T-lymphocytes (whole-cell patch clamp)
T1 sequence (P22001 whole entry): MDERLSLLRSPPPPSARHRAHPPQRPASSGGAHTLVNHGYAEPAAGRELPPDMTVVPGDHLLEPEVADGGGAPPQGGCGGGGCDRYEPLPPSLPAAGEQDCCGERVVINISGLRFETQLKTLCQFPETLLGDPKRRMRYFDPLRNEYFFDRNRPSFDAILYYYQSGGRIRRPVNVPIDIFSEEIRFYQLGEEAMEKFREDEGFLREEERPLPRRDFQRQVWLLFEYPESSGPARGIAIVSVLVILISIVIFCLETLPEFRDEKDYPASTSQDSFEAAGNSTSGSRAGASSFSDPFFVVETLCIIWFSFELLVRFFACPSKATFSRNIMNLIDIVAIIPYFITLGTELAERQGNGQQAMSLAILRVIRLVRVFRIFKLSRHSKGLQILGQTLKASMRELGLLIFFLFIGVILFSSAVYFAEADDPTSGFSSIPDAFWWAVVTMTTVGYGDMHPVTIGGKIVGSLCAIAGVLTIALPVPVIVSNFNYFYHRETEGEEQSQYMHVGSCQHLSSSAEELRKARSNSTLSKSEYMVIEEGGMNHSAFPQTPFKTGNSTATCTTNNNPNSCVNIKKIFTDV

CCc1cc2c(cc1OS(N)(=O)=O)CC[C@@H]1[C@@H]2CC[C@]2(C)[C@@H](CC#N)CC[C@@H]12 [STX564, 2-ethyl-3-sulfamoyloxy-17β-cyanomethylestra-1,3,5(10)-triene]
SOCE inhibition [1]: significantly inhibited | effect on IP3-evoked Ca2+ release [2]: Neither STX564 nor Synta66 affected IP3-evoked Ca^2+ release significantly; also recorded: did not inhibit the Ca^2+ release by IP3 | effect on KV channel currents [3]: does not inhibit KV channels; also recorded: no inhibition; also recorded: does not inhibit the KV1.3 channel
